Assay results published in paper PMC3247980 (The Journal of Biological Chemistry, 2011).

Experiments:
PfFT1 = molecular target: T1, PfFT1 (Plasmodium falciparum, UniProt Q8IBB7); experiment: [3H]folinic acid uptake, Xenopus oocytes; assay type: cell-based; conditions: labelled compound, 40 min, pH 7.4, room temperature
T1 sequence (Q8IBB7 1-505): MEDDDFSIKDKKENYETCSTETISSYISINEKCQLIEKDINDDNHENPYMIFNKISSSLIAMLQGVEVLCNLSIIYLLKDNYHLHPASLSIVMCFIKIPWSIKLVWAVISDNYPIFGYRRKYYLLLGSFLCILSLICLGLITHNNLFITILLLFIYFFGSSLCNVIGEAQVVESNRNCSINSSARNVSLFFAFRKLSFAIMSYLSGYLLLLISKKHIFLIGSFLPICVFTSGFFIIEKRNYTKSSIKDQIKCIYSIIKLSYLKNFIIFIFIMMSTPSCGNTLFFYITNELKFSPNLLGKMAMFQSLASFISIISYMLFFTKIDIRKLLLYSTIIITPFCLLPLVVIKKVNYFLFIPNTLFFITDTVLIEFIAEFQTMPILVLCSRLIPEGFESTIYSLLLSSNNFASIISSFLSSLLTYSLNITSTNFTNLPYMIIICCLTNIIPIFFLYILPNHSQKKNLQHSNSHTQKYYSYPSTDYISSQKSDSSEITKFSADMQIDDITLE

PfFT2 = molecular target: T2, PfFT2 (Plasmodium falciparum, UniProt Q8IIK1); experiment: [3H]folinic acid uptake, Xenopus oocytes; assay type: cell-based; conditions: labelled compound, 40 min, pH 7.4, room temperature
T2 sequence (Q8IIK1 1-455): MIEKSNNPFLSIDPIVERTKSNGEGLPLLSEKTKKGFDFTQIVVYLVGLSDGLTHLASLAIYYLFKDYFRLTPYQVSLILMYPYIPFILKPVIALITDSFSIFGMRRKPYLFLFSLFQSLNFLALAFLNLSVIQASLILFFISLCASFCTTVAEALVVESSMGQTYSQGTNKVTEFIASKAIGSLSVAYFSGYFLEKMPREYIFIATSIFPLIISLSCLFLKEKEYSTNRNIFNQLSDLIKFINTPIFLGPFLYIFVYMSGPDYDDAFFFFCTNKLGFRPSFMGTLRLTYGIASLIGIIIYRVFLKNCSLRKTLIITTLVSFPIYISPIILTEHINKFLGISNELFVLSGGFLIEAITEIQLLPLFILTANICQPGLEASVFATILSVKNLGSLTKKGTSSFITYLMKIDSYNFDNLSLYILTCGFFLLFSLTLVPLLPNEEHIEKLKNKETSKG

## Nc1nc(=O)c2c([nH]1)NCC(CNc1ccc(C(=O)N[C@@H](CCC(=O)O)C(=O)O)cc1)N2C=O (mixture of isomers) [folinic acid]
PfFT1
  [3H]folinic acid uptake, Xenopus oocytes: cRNA from PfFT1 and PfFT2 showed significantly higher uptake of [^3H]folinic acid
PfFT2
  [3H]folinic acid uptake, Xenopus oocytes: cRNA from PfFT1 and PfFT2 showed significantly higher uptake of [^3H]folinic acid
